Columns and labels:
[1] = target: Serine/threonine-protein kinase DCLK2 (Homo sapiens) (UniProt Q8N568); conditions: Compound concentration 1000.0 nM
[2] = system: Receptor-type tyrosine-protein kinase FLT3 (Homo sapiens), P36888 [D835V]; conditions: Compound concentration 1000.0 nM
[3] = target: Mitogen-activated protein kinase kinase kinase 1 (Homo sapiens) (UniProt Q13233); conditions: Compound concentration 1000.0 nM
[4] = target: Homeodomain-interacting protein kinase 2 (Homo sapiens) (UniProt Q9H2X6); conditions: Compound concentration 1000.0 nM
[5] = target: Tyrosine-protein kinase Fgr (Homo sapiens) (UniProt P09769); conditions: Compound concentration 1000.0 nM
[6] = target: Serine/threonine-protein kinase WNK4 (Homo sapiens) (UniProt Q96J92); conditions: Compound concentration 1000.0 nM
[7] = target: Aurora kinase B (Homo sapiens) (UniProt Q96GD4); conditions: Compound concentration 1000.0 nM
Chain of Aurora kinase B (Homo sapiens) (Q96GD4 whole entry): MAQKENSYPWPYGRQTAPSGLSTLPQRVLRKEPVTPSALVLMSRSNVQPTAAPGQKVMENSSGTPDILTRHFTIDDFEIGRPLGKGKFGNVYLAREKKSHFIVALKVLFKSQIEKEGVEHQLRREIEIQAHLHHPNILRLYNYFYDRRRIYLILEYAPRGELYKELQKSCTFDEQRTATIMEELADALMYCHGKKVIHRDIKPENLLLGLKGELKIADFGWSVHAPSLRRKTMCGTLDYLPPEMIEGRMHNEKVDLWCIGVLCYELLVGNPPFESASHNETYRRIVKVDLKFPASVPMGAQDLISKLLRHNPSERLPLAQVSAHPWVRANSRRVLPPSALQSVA

[8] = target: Calcium/calmodulin-dependent protein kinase type IV (Homo sapiens) (UniProt Q16566); conditions: Compound concentration 1000.0 nM
[9] = target: cAMP-dependent protein kinase catalytic subunit PRKX (Homo sapiens) (UniProt P51817); conditions: Compound concentration 1000.0 nM
Chain of cAMP-dependent protein kinase catalytic subunit PRKX (Homo sapiens) (P51817 whole entry): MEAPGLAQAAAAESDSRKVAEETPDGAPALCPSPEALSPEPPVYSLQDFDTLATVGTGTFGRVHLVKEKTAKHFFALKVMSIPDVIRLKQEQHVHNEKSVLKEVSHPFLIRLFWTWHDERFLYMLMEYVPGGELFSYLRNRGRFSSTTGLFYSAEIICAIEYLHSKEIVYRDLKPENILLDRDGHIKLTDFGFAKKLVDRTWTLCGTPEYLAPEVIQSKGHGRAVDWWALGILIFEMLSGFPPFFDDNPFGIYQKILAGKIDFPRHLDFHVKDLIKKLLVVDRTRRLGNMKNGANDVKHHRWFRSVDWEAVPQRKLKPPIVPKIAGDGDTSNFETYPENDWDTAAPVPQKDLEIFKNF

[10] = target: Ribosomal protein S6 kinase alpha-2 (Homo sapiens) (UniProt Q15349); conditions: Compound concentration 1000.0 nM
[11] = target: Serine/threonine-protein kinase BRSK1 (Homo sapiens) (UniProt Q8TDC3); conditions: Compound concentration 1000.0 nM
[12] = target: Serine/threonine-protein kinase ULK3 (Homo sapiens) (UniProt Q6PHR2); conditions: Compound concentration 1000.0 nM
[13] = target: MAP/microtubule affinity-regulating kinase 4 (Homo sapiens) (UniProt Q96L34); conditions: Compound concentration 1000.0 nM
[14] = system: Phosphatidylinositol 4,5-bisphosphate 3-kinase catalytic subunit alpha isoform (Homo sapiens), P42336 [Q546K]; conditions: Compound concentration 1000.0 nM
[15] = system: Phosphatidylinositol 4,5-bisphosphate 3-kinase catalytic subunit alpha isoform (Homo sapiens), P42336 [E545A]; conditions: Compound concentration 1000.0 nM
Chain of Phosphatidylinositol 4,5-bisphosphate 3-kinase catalytic subunit alpha isoform (Homo sapiens), P42336 [E545A] (P42336 whole entry E545A, canonical isoform): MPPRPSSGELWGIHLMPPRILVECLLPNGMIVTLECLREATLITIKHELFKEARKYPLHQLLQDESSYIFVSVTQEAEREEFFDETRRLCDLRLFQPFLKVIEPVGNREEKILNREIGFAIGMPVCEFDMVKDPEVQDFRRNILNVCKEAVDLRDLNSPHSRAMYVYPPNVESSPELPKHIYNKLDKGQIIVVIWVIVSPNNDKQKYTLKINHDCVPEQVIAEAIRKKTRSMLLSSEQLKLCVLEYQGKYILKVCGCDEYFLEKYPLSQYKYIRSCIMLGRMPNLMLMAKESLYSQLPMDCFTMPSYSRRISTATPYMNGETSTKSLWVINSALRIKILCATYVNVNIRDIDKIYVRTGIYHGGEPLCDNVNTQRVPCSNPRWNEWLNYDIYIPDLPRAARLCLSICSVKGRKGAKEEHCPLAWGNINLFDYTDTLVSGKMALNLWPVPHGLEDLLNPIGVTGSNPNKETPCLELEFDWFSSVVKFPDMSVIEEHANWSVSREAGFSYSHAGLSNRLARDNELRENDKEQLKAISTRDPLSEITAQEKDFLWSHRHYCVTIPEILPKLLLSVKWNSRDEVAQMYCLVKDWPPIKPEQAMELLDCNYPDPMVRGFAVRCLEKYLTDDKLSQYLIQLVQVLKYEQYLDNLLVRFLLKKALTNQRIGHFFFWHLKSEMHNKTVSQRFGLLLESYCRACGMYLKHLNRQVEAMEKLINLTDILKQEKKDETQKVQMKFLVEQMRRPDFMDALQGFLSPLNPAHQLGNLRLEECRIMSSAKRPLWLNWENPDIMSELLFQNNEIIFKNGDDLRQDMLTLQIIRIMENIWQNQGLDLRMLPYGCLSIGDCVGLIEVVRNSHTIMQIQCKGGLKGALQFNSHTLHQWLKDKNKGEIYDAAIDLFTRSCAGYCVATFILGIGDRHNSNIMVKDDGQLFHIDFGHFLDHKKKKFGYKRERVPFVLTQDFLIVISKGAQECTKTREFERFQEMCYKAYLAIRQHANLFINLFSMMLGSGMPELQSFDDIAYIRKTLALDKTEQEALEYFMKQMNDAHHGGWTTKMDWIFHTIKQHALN

[16] = target: Serine/threonine-protein kinase D3 (Homo sapiens) (UniProt O94806); conditions: Compound concentration 1000.0 nM
[17] = target: Tyrosine-protein kinase BTK (Homo sapiens) (UniProt Q06187); conditions: Compound concentration 1000.0 nM
[18] = target: MAP kinase-interacting serine/threonine-protein kinase 1 (Homo sapiens) (UniProt Q9BUB5); conditions: Compound concentration 1000.0 nM
[19] = target: Casein kinase I isoform gamma-1 (Homo sapiens) (UniProt Q9HCP0); conditions: Compound concentration 1000.0 nM
[20] = target: Mitogen-activated protein kinase kinase kinase kinase 5 (Homo sapiens) (UniProt Q9Y4K4); conditions: Compound concentration 1000.0 nM
Chain of Mitogen-activated protein kinase kinase kinase kinase 5 (Homo sapiens) (Q9Y4K4 whole entry, looked up): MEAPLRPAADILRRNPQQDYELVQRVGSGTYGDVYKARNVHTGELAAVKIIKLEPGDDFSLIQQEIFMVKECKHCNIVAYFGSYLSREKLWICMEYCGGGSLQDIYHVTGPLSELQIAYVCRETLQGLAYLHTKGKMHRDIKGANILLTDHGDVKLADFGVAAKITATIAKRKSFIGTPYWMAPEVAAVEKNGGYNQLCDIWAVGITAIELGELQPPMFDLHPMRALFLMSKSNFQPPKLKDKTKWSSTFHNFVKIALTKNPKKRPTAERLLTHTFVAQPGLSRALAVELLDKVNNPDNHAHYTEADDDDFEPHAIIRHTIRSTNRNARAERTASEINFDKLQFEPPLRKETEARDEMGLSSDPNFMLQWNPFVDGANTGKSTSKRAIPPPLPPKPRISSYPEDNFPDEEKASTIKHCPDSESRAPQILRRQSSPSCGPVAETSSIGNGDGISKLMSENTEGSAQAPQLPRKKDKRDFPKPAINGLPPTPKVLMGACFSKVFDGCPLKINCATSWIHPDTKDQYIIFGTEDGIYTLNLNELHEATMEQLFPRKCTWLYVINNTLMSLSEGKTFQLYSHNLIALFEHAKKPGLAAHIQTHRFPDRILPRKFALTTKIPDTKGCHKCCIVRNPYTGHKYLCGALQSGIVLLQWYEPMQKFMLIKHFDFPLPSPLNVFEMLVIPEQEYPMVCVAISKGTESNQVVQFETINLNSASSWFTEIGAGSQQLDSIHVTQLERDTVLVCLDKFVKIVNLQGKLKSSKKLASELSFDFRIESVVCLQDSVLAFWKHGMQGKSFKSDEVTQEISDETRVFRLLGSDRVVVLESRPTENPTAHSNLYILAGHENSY

[21] = target: Mitogen-activated protein kinase kinase kinase 7 (Homo sapiens) (UniProt O43318); conditions: Compound concentration 1000.0 nM
[22] = target: Serine/threonine-protein kinase 38-like (Homo sapiens) (UniProt Q9Y2H1); conditions: Compound concentration 1000.0 nM
[23] = target: Macrophage colony-stimulating factor 1 receptor (Homo sapiens) (UniProt P07333); conditions: Compound concentration 1000.0 nM
[24] = target: Leucine-rich repeat serine/threonine-protein kinase 2 (Homo sapiens) (UniProt Q5S007); conditions: Compound concentration 1000.0 nM
[25] = target: Receptor-interacting serine/threonine-protein kinase 2 (Homo sapiens) (UniProt O43353); conditions: Compound concentration 1000.0 nM
[26] = target: Serine/threonine-protein kinase Chk1 (Homo sapiens) (UniProt O14757); conditions: Compound concentration 1000.0 nM
Chain of Serine/threonine-protein kinase Chk1 (Homo sapiens) (O14757 whole entry): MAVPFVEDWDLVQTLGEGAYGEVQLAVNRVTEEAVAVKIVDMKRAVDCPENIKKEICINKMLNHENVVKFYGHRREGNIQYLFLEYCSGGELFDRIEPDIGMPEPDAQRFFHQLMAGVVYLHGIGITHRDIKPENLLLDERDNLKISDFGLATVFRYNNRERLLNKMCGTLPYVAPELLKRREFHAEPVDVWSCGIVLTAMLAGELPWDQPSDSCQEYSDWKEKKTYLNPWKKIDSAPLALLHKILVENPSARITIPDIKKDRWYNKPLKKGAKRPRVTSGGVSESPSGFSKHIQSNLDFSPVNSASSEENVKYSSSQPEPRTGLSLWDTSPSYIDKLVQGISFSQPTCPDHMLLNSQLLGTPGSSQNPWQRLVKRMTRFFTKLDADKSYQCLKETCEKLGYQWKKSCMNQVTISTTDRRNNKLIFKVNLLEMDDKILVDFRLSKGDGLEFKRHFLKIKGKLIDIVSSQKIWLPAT

[27] = target: Serine/threonine-protein kinase 38 (Homo sapiens) (UniProt Q15208); conditions: Compound concentration 1000.0 nM
[28] = target: Tyrosine-protein kinase Yes (Homo sapiens) (UniProt P07947); conditions: Compound concentration 1000.0 nM
[29] = target: Histamine H4 receptor (Homo sapiens) (UniProt Q9H3N8); conditions: Compound concentration 10.0 uM
[30] = target: Ephrin type-A receptor 1 (Homo sapiens) (UniProt P21709); conditions: Compound concentration 1000.0 nM
[31] = target: Calcium-dependent protein kinase 1 (Plasmodium falciparum) (UniProt P62344); conditions: Compound concentration 1000.0 nM
[32] = target: Atypical kinase COQ8B, mitochondrial (Homo sapiens) (UniProt Q96D53); conditions: Compound concentration 1000.0 nM
[33] = target: Ribosomal protein S6 kinase alpha-3 (Homo sapiens) (UniProt P51812); conditions: Compound concentration 1000.0 nM
Chain of Ribosomal protein S6 kinase alpha-3 (Homo sapiens) (P51812 whole entry): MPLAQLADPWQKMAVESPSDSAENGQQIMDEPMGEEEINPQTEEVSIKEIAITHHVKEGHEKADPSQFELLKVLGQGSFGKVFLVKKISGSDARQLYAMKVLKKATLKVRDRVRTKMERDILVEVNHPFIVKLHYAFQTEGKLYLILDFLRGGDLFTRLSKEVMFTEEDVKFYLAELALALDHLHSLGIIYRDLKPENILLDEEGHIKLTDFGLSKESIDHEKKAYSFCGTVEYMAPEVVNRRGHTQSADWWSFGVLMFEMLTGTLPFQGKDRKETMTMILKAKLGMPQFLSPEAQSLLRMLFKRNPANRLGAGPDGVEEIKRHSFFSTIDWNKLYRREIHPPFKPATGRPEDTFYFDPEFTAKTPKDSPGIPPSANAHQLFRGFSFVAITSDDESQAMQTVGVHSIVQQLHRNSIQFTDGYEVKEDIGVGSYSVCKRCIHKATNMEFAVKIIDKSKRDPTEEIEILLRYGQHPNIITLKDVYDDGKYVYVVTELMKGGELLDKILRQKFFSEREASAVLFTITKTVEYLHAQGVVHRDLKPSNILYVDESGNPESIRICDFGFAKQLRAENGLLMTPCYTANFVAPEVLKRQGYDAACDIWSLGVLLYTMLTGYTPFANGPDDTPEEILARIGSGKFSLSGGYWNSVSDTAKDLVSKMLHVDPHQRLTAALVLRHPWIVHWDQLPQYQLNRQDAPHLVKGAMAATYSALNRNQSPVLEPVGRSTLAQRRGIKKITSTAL

[34] = target: Serine/threonine-protein kinase RIO3 (Homo sapiens) (UniProt O14730); conditions: Compound concentration 1000.0 nM
[35] = target: Casein kinase I isoform epsilon (Homo sapiens) (UniProt P49674); conditions: Compound concentration 1000.0 nM
[36] = target: Serine/threonine-protein kinase 16 (Homo sapiens) (UniProt O75716); conditions: Compound concentration 1000.0 nM
[37] = target: SRSF protein kinase 2 (Homo sapiens) (UniProt P78362); conditions: Compound concentration 1000.0 nM
[38] = target: Serine/threonine-protein kinase PAK 4 (Homo sapiens) (UniProt O96013); conditions: Compound concentration 1000.0 nM
[39] = target: Mitogen-activated protein kinase 1 (Homo sapiens) (UniProt P28482); conditions: Compound concentration 1000.0 nM
Chain of Mitogen-activated protein kinase 1 (Homo sapiens) (P28482 whole entry): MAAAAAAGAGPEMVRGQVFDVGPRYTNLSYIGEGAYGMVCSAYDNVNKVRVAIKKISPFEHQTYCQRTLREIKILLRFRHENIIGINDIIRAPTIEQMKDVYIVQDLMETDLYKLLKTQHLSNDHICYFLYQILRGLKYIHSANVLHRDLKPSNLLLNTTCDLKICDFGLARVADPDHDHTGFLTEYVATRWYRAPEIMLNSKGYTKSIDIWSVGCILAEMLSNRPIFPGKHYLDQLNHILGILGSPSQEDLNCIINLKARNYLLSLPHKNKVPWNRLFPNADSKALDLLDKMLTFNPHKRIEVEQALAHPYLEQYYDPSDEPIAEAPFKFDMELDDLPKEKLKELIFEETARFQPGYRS

[40] = target: Serine/threonine-protein kinase Sgk2 (Homo sapiens) (UniProt Q9HBY8); conditions: Compound concentration 1000.0 nM
[41] = system: Epidermal growth factor receptor (Homo sapiens), P00533 [L861Q]; conditions: Compound concentration 1000.0 nM
[42] = target: Tyrosine-protein kinase Lck (Homo sapiens) (UniProt P06239); conditions: Compound concentration 1000.0 nM
[43] = target: Mitogen-activated protein kinase 12 (Homo sapiens) (UniProt P53778); conditions: Compound concentration 1000.0 nM
[44] = target: cAMP-dependent protein kinase catalytic subunit alpha (Homo sapiens) (UniProt P17612); conditions: Compound concentration 1000.0 nM
[45] = target: Phosphorylase b kinase gamma catalytic chain, skeletal muscle/heart isoform (Homo sapiens) (UniProt Q16816); conditions: Compound concentration 1000.0 nM

Chain of Serine/threonine-protein kinase DCLK2 (Homo sapiens) (Q8N568 whole entry): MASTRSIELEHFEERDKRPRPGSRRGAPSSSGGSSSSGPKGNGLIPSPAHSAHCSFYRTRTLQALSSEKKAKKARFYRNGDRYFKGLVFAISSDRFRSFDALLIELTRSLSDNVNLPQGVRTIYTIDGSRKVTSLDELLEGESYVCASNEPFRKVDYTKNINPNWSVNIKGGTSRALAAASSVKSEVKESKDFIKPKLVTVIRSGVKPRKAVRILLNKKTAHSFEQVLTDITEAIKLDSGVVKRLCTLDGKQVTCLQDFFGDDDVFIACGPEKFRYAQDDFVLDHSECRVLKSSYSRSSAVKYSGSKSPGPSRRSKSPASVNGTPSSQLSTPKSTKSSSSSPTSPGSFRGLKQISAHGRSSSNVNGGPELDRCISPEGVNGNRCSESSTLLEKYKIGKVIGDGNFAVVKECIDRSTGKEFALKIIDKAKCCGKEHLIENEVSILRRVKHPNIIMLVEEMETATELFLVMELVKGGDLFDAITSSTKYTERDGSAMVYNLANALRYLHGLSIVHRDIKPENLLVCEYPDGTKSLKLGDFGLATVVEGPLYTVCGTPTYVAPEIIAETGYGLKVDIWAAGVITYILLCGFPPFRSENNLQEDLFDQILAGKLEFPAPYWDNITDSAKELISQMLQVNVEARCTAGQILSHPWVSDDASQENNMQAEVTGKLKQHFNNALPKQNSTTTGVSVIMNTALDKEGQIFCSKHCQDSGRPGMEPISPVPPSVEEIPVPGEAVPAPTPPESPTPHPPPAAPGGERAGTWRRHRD

C[C@H](c1cccc(C#N)c1)n1cc(Cl)cc(C(N)=O)c1=N [(R)-9s]
inactive: residual activity [1] 88% | residual activity [2] 89% | residual activity [3] 90% | residual activity [4] 100% | residual activity [5] 80% | residual activity [6] 97% | residual activity [7] 100% | residual activity [8] 90% | residual activity [9] 100% | residual activity [10] 62% | residual activity [11] 68% | residual activity [12] 64% | residual activity [13] 99% | residual activity [14] 100% | residual activity [15] 100% | residual activity [16] 65% | residual activity [17] 91% | residual activity [18] 63% | residual activity [19] 96% | residual activity [20] 100% | residual activity [21] 77% | residual activity [22] 68% | residual activity [23] 100% | residual activity [24] 100% | residual activity [25] 66% | residual activity [26] 100% | residual activity [27] 87% | residual activity [28] 88% | inhibition [29] -2.33% | residual activity [30] 97% | residual activity [31] 86% | residual activity [32] 100% | residual activity [33] 80% | residual activity [34] 100% | residual activity [35] 99% | residual activity [36] 100% | residual activity [37] 100% | residual activity [38] 100% | residual activity [39] 93% | residual activity [40] 100% | residual activity [41] 100% | residual activity [42] 100% | residual activity [43] 100% | residual activity [44] 100% | residual activity [45] 100%

C[C@@H](c1cccc(C#N)c1)n1cc(Cl)cc(C(N)=O)c1=N [(S)-9s]
inactive: residual activity [1] 90% | residual activity [2] 95% | residual activity [3] 82% | residual activity [4] 100% | residual activity [5] 87% | residual activity [6] 98% | residual activity [7] 100% | residual activity [8] 82% | residual activity [9] 100% | residual activity [10] 100% | residual activity [11] 93% | residual activity [12] 75% | residual activity [13] 100% | residual activity [14] 100% | residual activity [15] 98% | residual activity [16] 100% | residual activity [17] 98% | residual activity [18] 86% | residual activity [19] 82% | residual activity [20] 96% | residual activity [21] 100% | residual activity [22] 85% | residual activity [23] 96% | residual activity [24] 100% | residual activity [25] 88% | residual activity [26] 100% | residual activity [27] 84% | residual activity [28] 93% | inhibition [29] 0.47% | residual activity [30] 77% | residual activity [31] 78% | residual activity [32] 88% | residual activity [33] 86% | residual activity [34] 87% | residual activity [35] 100% | residual activity [36] 85% | residual activity [37] 100% | residual activity [38] 100% | residual activity [39] 82% | residual activity [40] 91% | residual activity [41] 100% | residual activity [42] 90% | residual activity [43] 73% | residual activity [44] 100% | residual activity [45] 100%
